# Assays:
# UACC-62 = experiment: Growth inhibition of human UACC62 cells after 48 hrs by sulforhodamine B protein assay; format: functional; details: UACC-62, 48 h
# IGROV-1 = experiment: Growth inhibition of human IGROV1 cells after 48 hrs by sulforhodamine B protein assay; format: functional; details: IGROV-1, 48 h
# OVCAR-3 = experiment: Growth inhibition of human OVCAR-3 cells after 48 hrs by sulforhodamine B protein assay; format: functional; details: OVCAR-3, 48 h
# OVCAR-5 = experiment: Growth inhibition of human OVCAR5 cells after 48 hrs by sulforhodamine B protein assay; format: functional; details: OVCAR-5, 48 h
# OVCAR-8 = experiment: Growth inhibition of human OVCAR8 cells after 48 hrs by sulforhodamine B protein assay; format: functional; details: OVCAR-8, 48 h
# SK-OV-3 = experiment: Growth inhibition of human SKOV3 cells after 48 hrs by sulforhodamine B protein assay; format: functional; details: SK-OV-3, 48 h
# 786-0 = experiment: Growth inhibition of human 786-0 cells after 48 hrs by sulforhodamine B protein assay; format: functional; details: 786-0, 48 h
# ACHN = experiment: Growth inhibition of human ACHN cells after 48 hrs by sulforhodamine B protein assay; format: functional
# CAKI-1 = experiment: Growth inhibition of human Caki1 cells after 48 hrs by sulforhodamine B protein assay; format: functional; details: CAKI-1, 48 h
# RXF 393 = experiment: Growth inhibition of human […] cells after 48 hrs by sulforhodamine B protein assay; format: functional; details: RXF 393, 48 h
# SN12C = experiment: Growth inhibition of human SN12C cells after 48 hrs by sulforhodamine B protein assay; format: functional
# TK-10 = experiment: Growth inhibition of human TK10 cells after 48 hrs by sulforhodamine B protein assay; format: functional; details: TK-10, 48 h
# PC-3 = experiment: Growth inhibition of human PC3 cells after 48 hrs by sulforhodamine B protein assay; format: functional; details: PC-3, 48 h
# DU-145 = experiment: Growth inhibition of human DU145 cells after 48 hrs by sulforhodamine B protein assay; format: functional; details: DU-145, 48 h
# MCF7 = experiment: Growth inhibition of human MCF7 cells after 48 hrs by sulforhodamine B protein assay; format: functional; details: MCF7, 48 h
# MDA-MB-231 = experiment: Growth inhibition of human MDA-MB-231 cells after 48 hrs by sulforhodamine B protein assay; format: functional; details: MDA-MB-231, 48 h
# [1] = Growth inhibition of human Hs 578T cells after 48 hrs by sulforhodamine B protein assay; format: functional
# MDA-MB-435 = experiment: Growth inhibition of human MDA-MB-435 cells after 48 hrs by sulforhodamine B protein assay; format: functional; details: MDA-MB-435, 48 h
# BT-549 = experiment: Growth inhibition of human BT549 cells after 48 hrs by sulforhodamine B protein assay; format: functional; details: BT-549, 48 h
# T47D = experiment: Growth inhibition of human T47D cells after 48 hrs by sulforhodamine B protein assay; format: functional
# MDA-MB-468 = experiment: Growth inhibition of human MDA-MB-468 cells after 48 hrs by sulforhodamine B protein assay; format: functional; details: MDA-MB-468, 48 h
# DNA = experiment: Binding affinity to calf thymus DNA assessed as change in melting temperature at a compound to DNA molar ratio of 1:5 at pH 7 by thermal denaturation assay; format: nucleic-acid assay; details: Bos taurus
# [2] = target: T1, Type II restriction enzyme BamHI (Bacillus amyloliquefaciens) (UniProt P23940); experiment: Inhibition of Bacillus amyloliquefaciens BamH1-mediated pBR322 cleavage after 16 hrs by RED100-restriction endonuclease digestion assay
# T1 sequence (whole entry): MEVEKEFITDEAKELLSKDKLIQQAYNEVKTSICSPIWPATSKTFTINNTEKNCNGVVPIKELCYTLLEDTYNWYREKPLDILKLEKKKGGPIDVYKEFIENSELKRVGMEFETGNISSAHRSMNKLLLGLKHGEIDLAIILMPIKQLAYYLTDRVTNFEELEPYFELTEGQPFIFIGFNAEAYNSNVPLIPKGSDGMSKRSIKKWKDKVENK
# CCRF-CEM = experiment: Growth inhibition of human CCRF-CEM cells after 48 hrs by sulforhodamine B protein assay; format: functional
# HL-60(TB) = experiment: Growth inhibition of human HL-60(TB) cells after 48 hrs by sulforhodamine B protein assay; format: functional; details: HL-60, 48 h
# K562 = experiment: Growth inhibition of human K562 cells after 48 hrs by sulforhodamine B protein assay; format: functional; details: K562, 48 h
# MOLT-4 = experiment: Growth inhibition of human MOLT4 cells after 48 hrs by sulforhodamine B protein assay; format: functional; details: MOLT-4, 48 h
# [3] = Growth inhibition of human […] cells after 48 hrs by sulforhodamine B protein assay; format: functional
# SR = experiment: Growth inhibition of human SR cells after 48 hrs by sulforhodamine B protein assay; format: functional
# A549 = experiment: Growth inhibition of human A549 cells after 48 hrs by sulforhodamine B protein assay; format: functional; details: A549, 48 h
# HOP-62 = experiment: Growth inhibition of human HOP62 cells after 48 hrs by sulforhodamine B protein assay; format: functional; details: HOP-62, 48 h
# HOP-92 = experiment: Growth inhibition of human HOP92 cells after 48 hrs by sulforhodamine B protein assay; format: functional; details: HOP-92, 48 h
# NCI-H23 = experiment: Growth inhibition of human NCI-H23 cells after 48 hrs by sulforhodamine B protein assay; format: functional; details: NCI-H23, 48 h
# NCI-H460 = experiment: Growth inhibition of human NCI-H460 cells after 48 hrs by sulforhodamine B protein assay; format: functional; details: NCI-H460, 48 h
# NCI-H522 = experiment: Growth inhibition of human NCI-H522 cells after 48 hrs by sulforhodamine B protein assay; format: functional; details: NCI-H522, 48 h
# COLO 205 = experiment: Growth inhibition of human COLO205 cells after 48 hrs by sulforhodamine B protein assay; format: functional; details: COLO 205, 48 h
# HCC 2998 = experiment: Growth inhibition of human HCC2998 cells after 48 hrs by sulforhodamine B protein assay; format: functional; details: HCC 2998, 48 h
# HCT-116 = experiment: Growth inhibition of human HCT116 cells after 48 hrs by sulforhodamine B protein assay; format: functional; details: HCT-116, 48 h
# HT-29 = experiment: Growth inhibition of human HT-29 cells after 48 hrs by sulforhodamine B protein assay; format: functional; details: HT-29, 48 h
# KM12 = experiment: Growth inhibition of human KM12 cells after 48 hrs by sulforhodamine B protein assay; format: functional; details: KM12, 48 h
# SW-620 = experiment: Growth inhibition of human SW620 cells after 48 hrs by sulforhodamine B protein assay; format: functional; details: SW-620, 48 h
# SF-268 = experiment: Growth inhibition of human SF268 cells after 48 hrs by sulforhodamine B protein assay; format: functional; details: SF-268, 48 h
# SF-539 = experiment: Growth inhibition of human SF539 cells after 48 hrs by sulforhodamine B protein assay; format: functional; details: SF-539, 48 h
# SNB-19 = experiment: Growth inhibition of human SNB19 cells after 48 hrs by sulforhodamine B protein assay; format: functional; details: SNB-19, 48 h
# SNB-75 = experiment: Growth inhibition of human SNB75 cells after 48 hrs by sulforhodamine B protein assay; format: functional; details: SNB-75, 48 h
# U-251 = experiment: Growth inhibition of human U251 cells after 48 hrs by sulforhodamine B protein assay; format: functional; details: U-251, 48 h
# LOX IMVI = experiment: Growth inhibition of human LOXIMVI cells after 48 hrs by sulforhodamine B protein assay; format: functional
# Malme-3M = experiment: Growth inhibition of human MALME-3M cells after 48 hrs by sulforhodamine B protein assay; format: functional
# M14 = experiment: Growth inhibition of human M14 cells after 48 hrs by sulforhodamine B protein assay; format: functional; details: M14, 48 h
# SK-MEL-28 = experiment: Growth inhibition of human SK-MEL-28 cells after 48 hrs by sulforhodamine B protein assay; format: functional; details: SK-MEL-28, 48 h
# SK-MEL-5 = experiment: Growth inhibition of human SK-MEL-5 cells after 48 hrs by sulforhodamine B protein assay; format: functional; details: SK-MEL-5, 48 h
# A498 = experiment: Growth inhibition of human A498 cells after 48 hrs by sulforhodamine B protein assay; format: functional; details: A498, 48 h
structure (smiles),measurement,setting,value
COc1cc2c(cc1OCCCN1CCN(CCCOc3cc4c(cc3OC)C(=O)N3CC(F)(F)C[C@H]3C=N4)CC1)N=C[C@@H]1CC(F)(F)CN1C2=O,GI50,UACC-62,3.05 µM
same,GI50,IGROV-1,1.92 µM
same,GI50,OVCAR-3,3.55 µM
same,GI50,OVCAR-5,3.83 µM
same,GI50,OVCAR-8,6.3 µM
same,GI50,SK-OV-3,8.64 µM
same,GI50,786-0,3.17 µM
same,GI50,ACHN,5.64 µM
same,GI50,CAKI-1,3.31 µM
same,GI50,RXF 393,2.14 µM
same,GI50,SN12C,4.05 µM
same,GI50,TK-10,4.38 µM
same,GI50,PC-3,3.06 µM
same,GI50,DU-145,3.63 µM
same,GI50,MCF7,2.02 µM
same,GI50,MDA-MB-231,4.29 µM
same,GI50,[1],2.32 µM
same,GI50,MDA-MB-435,2.94 µM
same,GI50,BT-549,1.95 µM
same,GI50,T47D,3.25 µM
same,GI50,MDA-MB-468,1.38 µM
same,ΔTm,DNA,11 °C
same,Activity,[2],Dose-dependent effect
same,GI50,CCRF-CEM,0.97 µM
same,GI50,HL-60(TB),1.18 µM
same,GI50,K562,1.74 µM
same,GI50,MOLT-4,2.02 µM
same,GI50,[3],2.2 µM
same,GI50,SR,0.88 µM
same,GI50,A549,7.32 µM
same,GI50,HOP-62,3.17 µM
same,GI50,HOP-92,6.14 µM
same,GI50,NCI-H23,4.66 µM
same,GI50,NCI-H460,2.6 µM
same,GI50,NCI-H522,1.14 µM
same,GI50,COLO 205,3.09 µM
same,GI50,HCC 2998,5.4 µM
same,GI50,HCT-116,3.59 µM
same,GI50,HT-29,3.61 µM
same,GI50,KM12,4.1 µM
same,GI50,SW-620,2.61 µM
same,GI50,SF-268,3.57 µM
same,GI50,SF-539,3.05 µM
same,GI50,SNB-19,4.08 µM
same,GI50,SNB-75,5.52 µM
same,GI50,U-251,3.36 µM
same,GI50,LOX IMVI,1.89 µM
same,GI50,Malme-3M,2.8 µM
same,GI50,M14,3.25 µM
same,GI50,SK-MEL-28,1.86 µM
same,GI50,SK-MEL-5,4.28 µM
same,GI50,A498,2.43 µM

# Reference: ChEMBL document CHEMBL1152723, “Remarkable enhancement in the DNA-binding ability of C2-fluoro substituted pyrrolo[2,1-c][1,4]benzodiazepines and their anticancer potential” (2009)
